Laboratory results as given in US20240325394A1, “SALT AND CRYSTAL FORM OF NITROGEN-CONTAINING HETEROCYCLIC DERIVATIVE, PREPARATION METHOD THEREFOR AND APPLICATION THEREOF” (SHANGHAI HANSOH BIOMEDICAL CO., LTD., priority 2020, published 2024).
Counter-ions that a name gives are not always drawn.

Experiments:
Assay type in all cases: physicochemical
[1] = Solid stability (10 days), impurity increase by HPLC
[2] = Thermodynamic solubility in different media (FaSSGF, FaSSIF, FeSSIF, water) at 37° C.; conditions: 24 hours
[3] = Solid stability of crystal form, XRPD after stress conditions

## C=CC(=O)N1C[C@H](C)N(c2nc(=O)n(-c3c(SC)ccnc3C(C)C)c3nc(-c4c(N)ccc(Cl)c4F)c(Cl)cc23)C[C@H]1C [crystal form II of sulfate, P-4-((2S,5R)-4-acryloyl-2,5-dimethylpiperazin-1-yl)-7-(6-amino-3-chloro-2-fluorophenyl)-6-chloro-1-(2-isopropyl-4-(methylthio)pyridin-3-yl)pyrido[2,3-d]pyrimidin-2(1H)-one]
[1]; 50° C. & 75% RH, HPLC peak area normalization
  Stability of solid (10 days) (impurity increase %): 0.15%
[1]; 60° C., HPLC peak area normalization
  Stability of solid (10 days) (impurity increase %): 0.91%
[1]; 92.5% RH, HPLC peak area normalization
  Stability of solid (10 days) (impurity increase %): 0.56%
[1]; Light (5000±500 lux), HPLC peak area normalization
  Stability of solid (10 days) (impurity increase %): 1.12%
[1]; light, high humidity, high temperature and high humidity conditions
  Solid stability (in words): relatively stable
[2]; FaSSGF
  Solubility: 386.5 µg/mL
[2]; FaSSIF
  Solubility: 150.3 µg/mL
[2]; FeSSIF
  Solubility: 383.5 µg/mL
[2]; H2O
  Solubility: 13.2 µg/mL

## C=CC(=O)N1C[C@H](C)N(c2nc(=O)n(-c3c(SC)ccnc3C(C)C)c3nc(-c4c(N)ccc(Cl)c4F)c(Cl)cc23)C[C@H]1C [Crystal form I of hydroxyethyl sulfonate, P-4-((2S,5R)-4-acryloyl-2,5-dimethylpiperazin-1-yl)-7-(6-amino-3-chloro-2-fluorophenyl)-6-chloro-1-(2-isopropyl-4-(methylthio)pyridin-3-yl)pyrido[2,3-d]pyrimidin-2(1H)-one]
[1]; 50° C. & 75% RH
  Stability of solid (10 days) (impurity increase %): 0.30%
[1]; 60° C.
  Stability of solid (10 days) (impurity increase %): 0.26%
[1]; 92.5% RH
  Stability of solid (10 days) (impurity increase %): 0.01%
[1]; Light (5000±500 lux)
  Stability of solid (10 days) (impurity increase %): 0.27%
[3]; High humidity (25° C., 75%, 10 days)
  Crystal form of hydroxyethyl sulfonate (XRPD): Crystal form I
[3]; High humidity (25° C., 90%, 10 days)
  Crystal form of hydroxyethyl sulfonate (XRPD): Crystal form I
[3]; High temperature (40° C., 30 days)
  Crystal form of hydroxyethyl sulfonate (XRPD): Crystal form I
[3]; High temperature (60° C., 30 days)
  Crystal form of hydroxyethyl sulfonate (XRPD): Crystal form I
[3]; Initial crystal form
  Crystal form of hydroxyethyl sulfonate (XRPD): Crystal form I
[3]; Light (≥1.2 × 10^6 lux-h, 10 days)
  Crystal form of hydroxyethyl sulfonate (XRPD): Crystal form I
[3]; Micropowder
  Crystal form of hydroxyethyl sulfonate (XRPD): Crystal form I
[3]; light, high humidity, high temperature, and micropowder conditions
  Solid stability (in words): relatively stable
[2]; FaSSGF
  Solubility: 314.6 µg/mL
[2]; FaSSIF
  Solubility: 158.8 µg/mL
[2]; FeSSIF
  Solubility: 347.3 µg/mL
[2]; H2O
  Solubility: 7.4 µg/mL
